Laboratory results from US20260138949A1, “NOVEL COMPOUND AS PHOSPHOLIPASE D INHIBITOR AND USE THEREOF” (UIF (UNIVERSITY INDUSTRY FOUNDATION), YONSEI UNIVERSITY, priority 2022, published 2026).

Tested on: phospholipase D1
Test: PLD activity in HCT116 cells ([3H]phosphatidylbutanol, TLC)
Assay type: cell-based, human
Conditions: compound 10 μM, cells without the compound = 100%
Description: To evaluate the inhibitory effect of the compounds according to the present invention on phospholipase D1 activity, experiments were conducted as follows.
For the analysis of PLD activity in cells, human colon cancer cell line (HCT116) was cultured in a 6-well plate at 37° C. for 24 hours, washed twice with phosphate-buffered saline (PBS), and then replaced with medium containing [^3H]myristate and cultured for 24 hours. After the culture, the cells were washed three times with PBS, treated with 1-butanol, and the drug was added to a final concentration of 10 μM. The cells were trypsinized and suspended, and the amount of [^3H]phosphatidylbutanol produced in the cell suspension was measured and evaluated for PLD activity using thin layer chromatography (TLC), and the results are shown in Table 1 below.
The Remaining activity % at 10 μM in Table 1 is calculated by setting the amount of [^3H]phosphatidylbutanol produced in cells without the compound as 100% and calculating the amount of [^3H]phosphatidylbutanol produced in cells treated with the compound as a percentage. Therefore, the lower the value of Remaining activity %, the higher the PLD inhibitory activity.

Row | SMILES | Remaining activity % at 10 μM
1 | O=C(Nc1ccc(O)c(O)c1)c1cc2cc(F)ccc2[nH]1 [Example 1-110, N-(3,4-dihydroxyphenyl)-5-fluoro-1H-indole-2-carboxamide] | 28.85%
2 | CC(C)(C)c1ccc(CNC(=O)Cc2c[nH]c3ccccc23)cc1 [Example 1-41, N-(4-tert-butylbenzyl)-2-(1H-indol-3-yl)acetamide] | 59.99%
3 | O=C(Cc1c[nH]c2ccccc12)NCc1ccccn1 [Example 1-56, 2-(1H-indol-3-yl)-N-(pyridin-2-ylmethyl)acetamide] | 96.79%
4 | O=C(CCc1c[nH]c2ccccc12)Nc1ccccc1F [Example 1-61, N-(2-fluorophenyl)-3-(1H-indol-3-yl)propanamide] | 45.47%
5 | O=C(CCc1c[nH]c2ccccc12)Nc1ccc(Cl)c([N+](=O)[O-])c1 [Example 1-68, N-(4-chloro-3-nitrophenyl)-3-(1H-indol-3-yl)propanamide] | not active
6 | O=C(CCc1c[nH]c2ccccc12)Nc1cccc(F)c1 [Example 1-62, N-(3-fluorophenyl)-3-(1H-indol-3-yl)propanamide] | 49.36%
7 | O=C(Nc1cccc(C(F)(F)F)c1)c1cc2cc(F)ccc2[nH]1 [Example 1-95, 5-fluoro-N-(3-(trifluoromethyl)phenyl)-1H-indole-2-carboxamide] | 52.08%
8 | Cc1cccc(CNC(=O)Cc2c[nH]c3ccccc23)c1 [Example 1-40, 2-(1H-indol-3-yl)-N-(3-methylbenzyl)acetamide] | 95.87%
9 | O=C(Cc1c[nH]c2ccccc12)NCc1cccc(F)c1 [Example 1-36, N-(3-fluorobenzyl)-2-(1H-indol-3-yl)acetamide] | 76.23%
10 | O=C(Cc1c[nH]c2ccccc12)Nc1ccccc1O [Example 1-7, N-(2-hydroxyphenyl)-2-(1H-indol-3-yl)acetamide] | 65.03%
11 | O=C(Cc1c[nH]c2ccccc12)Nc1ccc(Cl)c([N+](=O)[O-])c1 [Example 1-19, N-(4-chloro-3-nitrophenyl)-2-(1H-indol-3-yl)acetamide] | not active
12 | COC(=O)c1ccc(CNC(=O)c2cc3ccccc3[nH]2)cc1 [Example 1-88, methyl 4-((1H-indole-2-carboxamido)methyl)benzoate] | 37.79%
13 | O=C(CCc1c[nH]c2ccccc12)Nc1ccc(O)c(O)c1 [Example 1-108, N-(3,4-dihydroxyphenyl)-3-(1H-indol-3-yl)propanamide] | 76.29%
14 | COC(=O)c1ccc(CNC(=O)CCCc2c[nH]c3ccccc23)cc1 [Example 1-80, methyl 4-((4-(1H-indol-3-yl)butanamido)methyl)benzoate] | 56.02%
15 | COc1ccc(CNC(=O)CCc2c[nH]c3ccccc23)cc1 [Example 1-71, 3-(1H-indol-3-yl)-N-(4-methoxybenzyl)propanamide] | 51.45%
16 | O=C(Cc1c[nH]c2ccccc12)NCc1ccccc1Cl [Example 1-48, N-(2-chlorobenzyl)-2-(1H-indol-3-yl)acetamide] | 75.72%
17 | COc1ccc(COC(=O)CCCc2c[nH]c3ccccc23)cc1 [Example 1-117, 4-methoxybenzyl 4-(1H-indol-3-yl)butanoate] | 72.65%
18 | O=C(Nc1ccc(Br)cc1)c1c[nH]c2ccccc12 [Example 1-2, N-(4-bromophenyl)-1H-indole-3-carboxamide] | 85.52%
19 | O=C(Cc1c[nH]c2ccccc12)NCCc1ccc(Br)cc1 [Example 1-60, N-(4-bromophenethyl)-2-(1H-indol-3-yl)acetamide] | 82.15%
20 | COc1ccc(CNC(=O)c2cc3cc(F)ccc3[nH]2)cc1OC [Example 1-94, N-(3,4-dimethoxybenzyl)-5-fluoro-1H-indole-2-carboxamide] | 53.46%
21 | O=C(CCCc1c[nH]c2ccccc12)Nc1ccc(Cl)c(Cl)c1 [Example 1-79, N-(3,4-dichlorophenyl)-4-(1H-indol-3-yl)butanamide] | 61.61%
22 | O=C(Cc1c[nH]c2ccccc12)NCc1ccc(F)cc1 [Example 1-37, N-(4-fluorobenzyl)-2-(1H-indol-3-yl)acetamide] | not active
23 | O=C(CCCc1c[nH]c2ccccc12)Nc1ccc(Cl)c([N+](=O)[O-])c1 [Example 1-78, N-(4-chloro-3-nitrophenyl)-4-(1H-indol-3-yl)butanamide] | 42.24%

Row | SMILES | Remaining activity % at 10 μM
24 | COc1ccc(CNC(=O)Cc2c[nH]c3ccccc23)c(OC)c1 [Example 1-44, N-(2,4-dimethoxybenzyl)-2-(1H-indol-3-yl)acetamide] | 54.83%
25 | O=C(Nc1cc(F)cc(F)c1)c1cc2cc(F)ccc2[nH]1 [Example 1-92, N-(3,5-difluorophenyl)-5-fluoro-1H-indole-2-carboxamide] | 56.88%
26 | O=C(Nc1ccc(Cl)c(Cl)c1)c1c[nH]c2ccccc12 [Example 1-4, N-(3,4-dichlorophenyl)-1H-indole-3-carboxamide] | 56.19%
27 | O=C(Cc1c[nH]c2ccccc12)Nc1ccccc1Br [Example 1-15, N-(2-bromophenyl)-2-(1H-indol-3-yl)acetamide] | 30.42%
28 | O=C(Cc1c[nH]c2ccccc12)Nc1ccccc1F [Example 1-12, N-(2-fluorophenyl)-2-(1H-indol-3-yl)acetamide] | not active
29 | COc1ccccc1CNC(=O)Cc1c[nH]c2ccccc12 [Example 1-50, 2-(1H-indol-3-yl)-N-(2-methoxybenzyl)acetamide] | 79.27%
30 | COc1ccc(COC(=O)c2cc3ccccc3[nH]2)cc1 [Example 1-116, 4-methoxybenzyl 1H-indole-2-carboxylate] | 52.66%
31 | O=C(Cc1c[nH]c2ccccc12)NNc1ccccc1Cl [Example 1-51, N′-(2-chlorophenyl)-2-(1H-indol-3-yl)acetohydrazide] | 82.82%
32 | O=C(Cc1c[nH]c2ccccc12)Nc1ccccc1 [Example 1-23, 2-(1H-indol-3-yl)-N-phenylacetamide] | not active
33 | COc1ccc(CNC(=O)CCc2c[nH]c3ccccc23)cc1OC [Example 1-73, N-(3,4-dimethoxybenzyl)-3-(1H-indol-3-yl)propanamide] | 95.81%
34 | CC(C)c1ccc(NC(=O)Cc2c[nH]c3ccccc23)cc1 [Example 1-33, 2-(1H-indol-3-yl)-N-(4-isopropylphenyl)acetamide] | 83.43%
35 | O=C(CCCc1c[nH]c2ccccc12)NCc1ccc(Cl)c(Cl)c1 [Example 1-82, N-(3,4-dichlorobenzyl)-4-(1H-indol-3-yl)butanamide] | 94.09%
36 | O=C(Nc1cc(O)cc(O)c1)c1cc2cc(F)ccc2[nH]1 [Example 1-112, N-(3,5-dihydroxyphenyl)-5-fluoro-1H-indole-2-carboxamide] | not active
37 | O=C(Cc1c[nH]c2ccccc12)NCc1ccc(O)c(O)c1 [Example 1-107, N-(3,4-dihydroxybenzyl)-2-(1H-indol-3-yl)acetamide] | 88.12%
38 | O=C(Cc1c[nH]c2ccccc12)NCc1cccc(Cl)c1Cl [Example 1-47, N-(2,3-dichlorobenzyl)-2-(1H-indol-3-yl)acetamide] | 62.96%
39 | O=C(Oc1cc(C(F)(F)F)cc(C(F)(F)F)c1)c1cc2cc(F)ccc2[nH]1 [Example 1-118, 3,5-bis(trifluoromethyl)phenyl 5-fluoro-1H-indole-2-carboxylate] | 49.17%
40 | O=C(Cc1c[nH]c2ccccc12)NNc1cccc(Cl)c1 [Example 1-52, N′-(3-chlorophenyl)-2-(1H-indol-3-yl)acetohydrazide] | 95.18%
41 | O=C(Nc1cc(C(F)(F)F)cc(C(F)(F)F)c1)c1cc2ccccc2[nH]1 [Example 1-84, N-(3,5-bis(trifluoromethyl)phenyl)-1H-indole-2-carboxamide] | 26.01%
42 | O=C(CCCc1c[nH]c2ccccc12)Nc1ccc(Br)cc1 [Example 1-76, N-(4-bromophenyl)-4-(1H-indol-3-yl)butanamide] | 79.65%
43 | COC(=O)c1ccc(NC(=O)Cc2c[nH]c3ccccc23)cc1 [Example 1-25, methyl 4-(2-(1H-indol-3-yl)acetamido)benzoate] | 66.73%
44 | COc1ccc(NC(=O)Cc2c[nH]c3ccccc23)cc1OC [Example 1-28, N-(3,4-dimethoxyphenyl)-2-(1H-indol-3-yl)acetamide] | not active
45 | O=C(Cc1c[nH]c2ccccc12)NCc1ccccc1F [Example 1-35, N-(2-fluorobenzyl)-2-(1H-indol-3-yl)acetamide] | 83.61%
